Data taken from ChEMBL document CHEMBL1138197, “Dopamine/serotonin receptor ligands. 12(1): SAR studies on hexahydro-dibenz[d,g]azecines lead to 4-chloro-7-methyl-5,6,7,8,9,14-hexahydrodibenz[d,g]azecin-3-ol, the first picomolar D5-selective dopamine-receptor antagonist” (J Med Chem, 2006).
pKi: −log10 of the molar value.

Key:
D(1A) dopamine receptor [1] = target: T1, D(1A) dopamine receptor (Homo sapiens, UniProt P21728); assay: Inhibition of D1 dopamine receptor in HEK 293 cells by intracellular calcium assay; assay type: functional, cell-based, HEK293
D(2) dopamine receptor [2] = target: T2, D(2) dopamine receptor (Homo sapiens, UniProt P14416); assay: Displacement of [3H]spiperone from D2L dopamine receptor
D(1A) dopamine receptor [3] = target: T1, D(1A) dopamine receptor; assay: Displacement of [3H]SCH 23390 from D1 dopamine receptor
D(3) dopamine receptor = D(3) dopamine receptor (Homo sapiens, UniProt P35462); assay: Binding affinity to D3 dopamine receptor by radioligand binding assay
D(1B) dopamine receptor [4] = target: T3, D(1B) dopamine receptor (Homo sapiens, UniProt P21918); assay: Binding affinity to D5 dopamine receptor by radioligand binding assay
D(2) dopamine receptor [5] = target: T2, D(2) dopamine receptor; assay: Inhibition of D2L dopamine receptor in HEK 293 cells by intracellular calcium assay; assay type: functional, cell-based, HEK293
D(1B) dopamine receptor [6] = target: T3, D(1B) dopamine receptor; assay: Inhibition of D5 dopamine receptor in HEK 293 cells by intracellular calcium assay; assay type: functional, cell-based, HEK293
D(4) dopamine receptor = target: T4, D(4) dopamine receptor (Homo sapiens, UniProt P21917); assay: Binding affinity to D4 dopamine receptor by radioligand binding assay
T4 sequence (P21917 whole entry): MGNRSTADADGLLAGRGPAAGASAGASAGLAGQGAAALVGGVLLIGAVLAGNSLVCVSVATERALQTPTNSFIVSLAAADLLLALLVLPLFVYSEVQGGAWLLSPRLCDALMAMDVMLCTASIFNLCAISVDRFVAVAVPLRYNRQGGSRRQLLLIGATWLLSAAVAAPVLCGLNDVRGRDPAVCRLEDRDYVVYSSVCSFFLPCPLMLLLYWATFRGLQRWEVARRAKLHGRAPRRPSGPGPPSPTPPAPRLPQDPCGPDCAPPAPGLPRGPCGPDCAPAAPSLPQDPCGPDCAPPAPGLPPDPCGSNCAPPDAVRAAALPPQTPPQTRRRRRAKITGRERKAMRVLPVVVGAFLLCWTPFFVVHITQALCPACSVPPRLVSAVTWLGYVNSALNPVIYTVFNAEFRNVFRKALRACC

T2 sequence (P14416 whole entry): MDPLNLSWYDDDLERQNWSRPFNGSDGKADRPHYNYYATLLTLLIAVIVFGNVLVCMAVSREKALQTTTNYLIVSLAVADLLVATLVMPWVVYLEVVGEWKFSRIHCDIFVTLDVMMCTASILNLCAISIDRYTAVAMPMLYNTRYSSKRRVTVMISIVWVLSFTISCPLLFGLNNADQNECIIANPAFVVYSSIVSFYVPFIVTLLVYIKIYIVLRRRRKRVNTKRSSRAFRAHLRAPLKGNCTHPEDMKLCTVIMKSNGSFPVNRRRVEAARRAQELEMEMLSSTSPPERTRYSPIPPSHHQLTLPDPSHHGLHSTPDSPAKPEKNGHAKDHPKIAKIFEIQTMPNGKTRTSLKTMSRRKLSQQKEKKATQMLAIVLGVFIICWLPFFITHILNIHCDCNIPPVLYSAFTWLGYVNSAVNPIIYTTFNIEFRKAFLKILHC
D(3) dopamine receptor, sequence (P35462 whole entry): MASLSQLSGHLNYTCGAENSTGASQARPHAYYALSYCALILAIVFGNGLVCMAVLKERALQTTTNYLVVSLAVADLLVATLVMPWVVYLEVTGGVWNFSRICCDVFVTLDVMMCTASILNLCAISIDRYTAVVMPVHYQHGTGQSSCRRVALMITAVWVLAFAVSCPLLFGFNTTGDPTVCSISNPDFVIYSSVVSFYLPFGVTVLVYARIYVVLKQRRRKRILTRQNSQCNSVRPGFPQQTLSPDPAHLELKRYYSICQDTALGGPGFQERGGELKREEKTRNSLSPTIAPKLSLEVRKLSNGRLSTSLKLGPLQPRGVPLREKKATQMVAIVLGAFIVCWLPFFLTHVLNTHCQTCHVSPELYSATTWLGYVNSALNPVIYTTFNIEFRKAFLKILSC
T3 sequence (P21918 whole entry): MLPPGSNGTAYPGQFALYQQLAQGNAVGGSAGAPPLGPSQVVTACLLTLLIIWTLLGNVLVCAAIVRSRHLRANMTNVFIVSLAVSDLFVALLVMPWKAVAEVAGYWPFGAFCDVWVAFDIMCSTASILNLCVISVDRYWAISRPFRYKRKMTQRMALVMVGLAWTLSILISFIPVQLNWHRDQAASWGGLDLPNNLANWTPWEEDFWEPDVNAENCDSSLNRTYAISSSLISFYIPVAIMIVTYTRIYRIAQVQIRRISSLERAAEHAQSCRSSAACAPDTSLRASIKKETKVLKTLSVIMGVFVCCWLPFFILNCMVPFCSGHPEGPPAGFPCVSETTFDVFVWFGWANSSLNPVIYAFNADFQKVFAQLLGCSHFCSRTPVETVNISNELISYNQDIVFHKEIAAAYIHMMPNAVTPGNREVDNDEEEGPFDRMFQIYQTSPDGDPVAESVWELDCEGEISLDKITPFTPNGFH
T1 sequence (P21728 whole entry): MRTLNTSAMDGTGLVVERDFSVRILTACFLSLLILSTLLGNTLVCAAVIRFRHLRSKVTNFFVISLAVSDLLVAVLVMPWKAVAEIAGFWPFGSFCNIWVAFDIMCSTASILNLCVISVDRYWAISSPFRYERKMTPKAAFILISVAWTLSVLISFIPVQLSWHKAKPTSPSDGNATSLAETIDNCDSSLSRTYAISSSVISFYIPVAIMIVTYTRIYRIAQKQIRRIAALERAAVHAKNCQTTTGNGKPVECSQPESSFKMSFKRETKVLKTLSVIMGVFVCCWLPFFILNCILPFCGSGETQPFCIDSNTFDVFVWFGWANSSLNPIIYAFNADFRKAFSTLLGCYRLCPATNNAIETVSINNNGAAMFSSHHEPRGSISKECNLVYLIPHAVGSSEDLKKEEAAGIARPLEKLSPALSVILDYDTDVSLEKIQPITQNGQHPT

| SMILES | pKi (D(1A) dopamine receptor [1]) | pKi (D(2) dopamine receptor [2]) | pKi (D(1A) dopamine receptor [3]) | pKi (D(3) dopamine receptor) | pKi (D(1B) dopamine receptor [4]) | pKi (D(2) dopamine receptor [5]) | pKi (D(1B) dopamine receptor [6]) | pKi (D(4) dopamine receptor) |
| --- | --- | --- | --- | --- | --- | --- | --- | --- |
| CN1CCc2ccccc2Cc2cc(O)ccc2CC1 | 8.59 | 7.43 | 8.05 | 6.53 | 7.37 | 7.72 | 7.43 |  |
| COc1ccc2c(c1)Cc1ccccc1CCN(C)CC2 | 6.25 | 7.21 | 7.09 | 6.82 |  | 7.68 | 5.98 |  |
| CN1CCc2ccccc2Cc2cc(N)c(O)cc2CC1 | 7.68 | 7.43 | 8.03 |  | 6.64 | 7.58 | 7.40 |  |
| CN1CCc2ccccc2Cc2[nH]c3ccccc3c2CC1 |  | 7.35 | 8.72 |  | 8.12 | 7.72 | 7.90 |  |
| COc1c(Cl)cc2c(c1Cl)Cc1ccccc1CCN(C)CC2 | 7.47 | 6.68 | 7.60 | 6.38 |  | 8.60 | 7.23 |  |
| COc1cccc2c1Cc1ccccc1CCN(C)CC2 | 7.42 | 6.79 | 8.12 | 5.74 |  | 7.40 | 7.26 |  |
| COc1ccc2c(c1)CCN(C)CCc1cc(OC)ccc1C2 | 7.57 | 8.19 | 8.03 | 6.99 | 7.90 | 9.21 | 7.94 |  |
| CN1CCc2ccccc2Cc2cc(Cl)c(O)c(Cl)c2CC1 | 8.42 | 7.06 | 8.49 |  |  | 7.43 | 8.92 |  |
| CN1CCc2ccccc2Cc2cc(O)c(Cl)cc2CC1 | 7.97 | 8.70 | 8.51 | 7.56 | 8.31 | 8.32 | 8.51 |  |
| CN1CCc2ccccc2Cc2c(ccc(O)c2Cl)CC1 | 8.17 | 9.00 | 9.34 | 8.73 | 9.01 | 9.89 | 8.80 |  |
| CN1CCc2cc(O)ccc2Cc2ccc(O)cc2CC1 | 8.48 | 7.23 | 8.70 | 6.47 | 8.77 | 7.72 | 9.27 |  |
| CN1CCc2ccccc2Cc2c(O)cccc2CC1 | 7.19 | 7.08 | 8.06 | 6.67 |  | 8.10 | 7.98 |  |
| CN1CCc2ccccc2Cc2ccc(O)c(Cl)c2CC1 | 9.34 | 8.40 | 9.08 | 7.61 | 10.24 | 8.21 | 10.28 | 8.28 |
| COc1ccc2c(c1)CCN(C)CCc1ccccc1C2 | 7.62 | 7.89 | 7.55 | 7.12 |  | 9.26 | 8.14 |  |
